The record followed here is ChEMBL document CHEMBL4152224, “The Identification of Potent, Selective, and Orally Available Inhibitors of Ataxia Telangiectasia Mutated (ATM) Kinase: The Discovery of AZD0156 (8-{6-[3-(Dimethylamino)propoxy]pyridin-3-yl}-3-methyl-1-(tetrahydro-2 H-pyran-4-yl)-1,3-dihydro-2 H-imidazo[4,5- c]quinolin-2-one)” (J Med Chem, 2018).

The nature of data set [1]: Dissociation constant, pKa of the compound. The data set is classed as physicochemical.
Data set [2] in a line: Thermodynamic solubility of the compound in 0.1M aqueous phosphate buffer at pH 7.4 after 24 hrs by LC-UV analysis. The note with it: read-out: Therm_solubility. The data set is classed as physicochemical.
Data set [3] is described as follows: Buffer/octanol partition coefficient, log D of the compound at pH 7.4 by shake flask method. The data set is classed as physicochemical.
Data set [4] in a line: Intrinsic clearance in rat hepatocytes assessed per million cells.
Data set [5] addresses Serine/threonine-protein kinase ATR (Homo sapiens, UniProt Q13535).
The target of data set [6] is Serine-protein kinase ATM (Homo sapiens, UniProt Q13315).
Data set [7] in a line: in vivo. The note with it: dog.
For data set [8], the target named is Voltage-gated inwardly rectifying potassium channel KCNH2 (Homo sapiens, UniProt Q12809). The data set is described as follows: Inhibition of human ERG by electrophysiology assay.
Chain of Voltage-gated inwardly rectifying potassium channel KCNH2 (Q12809 whole entry): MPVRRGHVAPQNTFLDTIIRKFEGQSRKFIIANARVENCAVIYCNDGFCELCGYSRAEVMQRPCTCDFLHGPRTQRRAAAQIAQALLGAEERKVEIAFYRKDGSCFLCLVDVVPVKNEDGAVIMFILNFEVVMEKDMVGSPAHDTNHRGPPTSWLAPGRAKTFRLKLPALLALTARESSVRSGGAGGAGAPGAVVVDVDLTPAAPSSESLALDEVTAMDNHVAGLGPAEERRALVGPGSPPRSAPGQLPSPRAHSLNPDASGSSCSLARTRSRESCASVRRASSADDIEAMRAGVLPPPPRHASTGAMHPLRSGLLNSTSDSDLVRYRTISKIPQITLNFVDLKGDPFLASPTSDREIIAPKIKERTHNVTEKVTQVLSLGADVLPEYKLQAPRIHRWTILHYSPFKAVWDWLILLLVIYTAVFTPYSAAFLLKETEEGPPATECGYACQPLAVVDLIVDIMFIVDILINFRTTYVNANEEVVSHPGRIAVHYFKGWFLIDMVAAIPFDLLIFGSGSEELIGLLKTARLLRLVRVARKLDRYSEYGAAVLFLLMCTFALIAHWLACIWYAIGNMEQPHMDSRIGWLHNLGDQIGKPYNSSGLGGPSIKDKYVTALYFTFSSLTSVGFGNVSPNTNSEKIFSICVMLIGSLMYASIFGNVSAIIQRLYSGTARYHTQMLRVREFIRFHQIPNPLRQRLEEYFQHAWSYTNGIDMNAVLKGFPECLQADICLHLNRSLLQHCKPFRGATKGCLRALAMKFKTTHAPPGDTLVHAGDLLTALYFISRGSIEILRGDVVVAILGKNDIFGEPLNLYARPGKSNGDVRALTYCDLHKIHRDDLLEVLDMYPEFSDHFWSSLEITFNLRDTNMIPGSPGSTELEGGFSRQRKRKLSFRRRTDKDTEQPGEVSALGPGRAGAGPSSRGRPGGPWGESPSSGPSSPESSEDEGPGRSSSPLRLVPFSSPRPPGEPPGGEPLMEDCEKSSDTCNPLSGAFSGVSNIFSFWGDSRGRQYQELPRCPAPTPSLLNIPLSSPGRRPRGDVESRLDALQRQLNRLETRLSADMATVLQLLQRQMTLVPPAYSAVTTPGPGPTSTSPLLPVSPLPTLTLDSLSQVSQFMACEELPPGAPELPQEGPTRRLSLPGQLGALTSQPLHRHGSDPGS
Data set [9] in a line: in vivo. The note with it: dog. This is another data set of the same source.
A short description of data set [10]: Volume of distribution at steady state in rat. The data set is classed as ADME, organism-based. The note with it: in vivo, read-out: Vdss.
A short description of data set [11]: Volume of distribution at steady state in dog. The data set is classed as ADME, organism-based, Canis lupus familiaris. The conditions noted are these: in vivo, read-out: Vdss.
A short description of data set [12]: in vivo. The conditions noted are these: rat.
The next data set is described as follows: in vitro. The note with it: dog, MDCK-MDR1.
Data set [13] can be described thus: Intrinsic clearance in human hepatocytes assessed per million cells.
A short description of data set [14]: in vivo. The note with it: rat. The source holds these as a separate data set.
Data set [15] can be described thus: Apparent permeability across apical to basolateral side in MDCK cells overexpressing MDR1. The data set is classed as ADME, cell-based, Canis lupus familiaris. The note with it: dog.
Data set [16] is described as follows: Oral bioavailability in dog. The data set is classed as ADME, organism-based, Canis lupus familiaris. The note with it: in vivo.
Data set [17] in a line: Oral bioavailability in rat. The data set is classed as ADME, organism-based. The note with it: in vivo.
The nature of data set [18]: Apparent permeability across apical to basolateral side in human Caco2 cells. The note with it: Caco-2. The data set is classed as ADME, cell-based.

≈ marks a conversion by molar mass, not a printed value.

Chain of Serine/threonine-protein kinase ATR (Q13535 whole entry): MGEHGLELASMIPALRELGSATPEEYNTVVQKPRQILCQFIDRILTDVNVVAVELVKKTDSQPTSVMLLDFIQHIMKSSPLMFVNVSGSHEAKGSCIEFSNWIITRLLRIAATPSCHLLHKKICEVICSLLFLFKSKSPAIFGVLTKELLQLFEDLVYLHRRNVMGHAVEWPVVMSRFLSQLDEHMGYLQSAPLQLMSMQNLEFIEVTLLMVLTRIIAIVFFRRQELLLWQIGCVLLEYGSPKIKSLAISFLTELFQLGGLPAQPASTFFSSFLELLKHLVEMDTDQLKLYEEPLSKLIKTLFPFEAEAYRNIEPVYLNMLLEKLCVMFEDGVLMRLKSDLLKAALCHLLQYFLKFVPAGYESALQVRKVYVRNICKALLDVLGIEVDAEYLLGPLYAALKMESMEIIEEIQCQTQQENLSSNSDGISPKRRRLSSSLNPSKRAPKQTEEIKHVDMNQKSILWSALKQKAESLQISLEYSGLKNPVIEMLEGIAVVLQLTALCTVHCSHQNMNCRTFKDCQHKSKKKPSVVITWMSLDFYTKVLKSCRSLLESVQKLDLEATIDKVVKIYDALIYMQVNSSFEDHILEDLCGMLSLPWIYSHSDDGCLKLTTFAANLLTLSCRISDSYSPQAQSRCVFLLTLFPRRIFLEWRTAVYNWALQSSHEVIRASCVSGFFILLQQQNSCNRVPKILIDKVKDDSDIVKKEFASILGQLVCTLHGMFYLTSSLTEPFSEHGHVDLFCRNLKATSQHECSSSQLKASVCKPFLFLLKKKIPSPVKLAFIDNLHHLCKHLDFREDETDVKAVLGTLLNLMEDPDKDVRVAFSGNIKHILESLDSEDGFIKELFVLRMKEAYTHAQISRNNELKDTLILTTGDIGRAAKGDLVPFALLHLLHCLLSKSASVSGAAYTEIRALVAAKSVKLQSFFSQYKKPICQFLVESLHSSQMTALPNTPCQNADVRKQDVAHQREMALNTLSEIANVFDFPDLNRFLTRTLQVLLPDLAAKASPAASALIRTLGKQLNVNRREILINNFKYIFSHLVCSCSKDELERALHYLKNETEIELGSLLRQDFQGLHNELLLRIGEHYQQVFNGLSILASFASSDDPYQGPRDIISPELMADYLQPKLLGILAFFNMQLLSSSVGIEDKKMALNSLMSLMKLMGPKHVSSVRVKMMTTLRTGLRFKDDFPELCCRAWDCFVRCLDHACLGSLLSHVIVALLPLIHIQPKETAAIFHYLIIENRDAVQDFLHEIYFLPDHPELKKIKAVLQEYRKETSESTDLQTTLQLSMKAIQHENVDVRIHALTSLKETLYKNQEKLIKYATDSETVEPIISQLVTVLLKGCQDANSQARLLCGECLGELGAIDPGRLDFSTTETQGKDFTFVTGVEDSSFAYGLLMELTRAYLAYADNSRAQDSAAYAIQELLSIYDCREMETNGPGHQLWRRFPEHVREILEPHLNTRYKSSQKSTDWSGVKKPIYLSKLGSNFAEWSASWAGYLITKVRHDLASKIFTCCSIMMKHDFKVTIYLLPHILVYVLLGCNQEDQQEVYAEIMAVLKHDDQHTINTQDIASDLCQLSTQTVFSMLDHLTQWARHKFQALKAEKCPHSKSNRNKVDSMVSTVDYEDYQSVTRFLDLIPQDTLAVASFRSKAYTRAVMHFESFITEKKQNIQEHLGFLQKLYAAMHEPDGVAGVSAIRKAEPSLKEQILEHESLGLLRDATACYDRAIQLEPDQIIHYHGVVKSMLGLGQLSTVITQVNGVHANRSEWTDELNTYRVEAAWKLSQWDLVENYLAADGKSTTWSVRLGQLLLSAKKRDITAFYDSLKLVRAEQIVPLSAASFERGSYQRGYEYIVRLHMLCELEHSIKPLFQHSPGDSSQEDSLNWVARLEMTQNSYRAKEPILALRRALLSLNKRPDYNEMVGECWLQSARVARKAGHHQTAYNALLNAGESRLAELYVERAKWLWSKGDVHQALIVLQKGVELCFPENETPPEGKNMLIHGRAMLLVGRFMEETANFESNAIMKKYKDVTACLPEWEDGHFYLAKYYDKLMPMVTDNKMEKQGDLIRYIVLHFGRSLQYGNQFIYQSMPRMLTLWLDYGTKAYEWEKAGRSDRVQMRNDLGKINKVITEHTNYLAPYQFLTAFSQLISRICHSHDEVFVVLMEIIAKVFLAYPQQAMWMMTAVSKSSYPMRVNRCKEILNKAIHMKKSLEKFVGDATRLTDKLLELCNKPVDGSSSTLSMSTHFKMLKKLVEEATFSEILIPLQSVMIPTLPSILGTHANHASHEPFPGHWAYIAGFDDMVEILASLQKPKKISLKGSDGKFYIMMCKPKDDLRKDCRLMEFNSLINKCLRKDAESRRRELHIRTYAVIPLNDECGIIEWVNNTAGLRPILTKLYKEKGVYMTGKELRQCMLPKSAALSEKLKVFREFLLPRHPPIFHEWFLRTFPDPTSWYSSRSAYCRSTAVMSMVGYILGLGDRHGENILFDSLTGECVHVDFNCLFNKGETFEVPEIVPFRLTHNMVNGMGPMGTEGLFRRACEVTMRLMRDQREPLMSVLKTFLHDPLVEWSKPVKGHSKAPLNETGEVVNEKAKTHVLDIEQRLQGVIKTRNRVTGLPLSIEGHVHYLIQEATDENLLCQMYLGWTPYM
Description for in vitro: Efflux ratio of apparent permeability across basolateral to apical over apical to basolateral side in MDCK cells overexpressing MDR1

In data set [1], `CO[C@H]1C[C@@H](n2c(=O)n(C)c3cnc4ccc(-c5ccc(OCCCN6CCC(O)CC6)nc5)cc4c32)C1` yielded a pKa of 8.4. The solubility thermodynamic at 24 h in data set [2] came out at 750 µM (≈ 388 µg/mL). This compound showed a logD in data set [3] of 0.6. In data set [4], this compound showed an intrinsic clearance (hepatocyte CLint) of less than 1 µL/min/1e6 cells. In addition, the IC50 was greater than 30 µM in data set [5] and 27000 nM in data set [6].

Regarding `CO[C@H]1C[C@@H](n2c(=O)n(C)c3cnc4ccc(-c5ccc(OCCCN(C)C)nc5)cc4c32)C1`, the clearance in the data set “in vivo [7]” turned out to be 27.6 mL/min/kg; in the data set “in vivo [14]” it was 19.5 mL/min/kg. Also, the IC50 in data set [8] is greater than 33 µM; in [5], greater than 30 µM. Moreover, the half-life in the data set “in vivo [9]” and in “in vivo [12]” was 300 min throughout. In addition, the Vd in [10] was 5.7 L/kg; in [11], 11 L/kg. Moreover, in data set [1], the pKa amounted to 9.5. The solubility thermodynamic at 24 h in data set [2] stood at 540 µM (≈ 249 µg/mL). Further, the logD in data set [3] amounted to 1.6. Also, the efflux ratio in the data set “in vitro” was found to be 3. The hepatocyte CLint in data set [4] was 5.1 µL/min/1e6 cells; in [13], 8.7 µL/min/1e6 cells. The Papp A→B in [15] came to 7.8 ×10⁻⁶ cm/s. Further, the figures for the bioavailability in [16] and in data set [17] were 65% and 50%, respectively.

Take `CO[C@H]1C[C@@H](n2c(=O)n(C)c3cnc4cc(F)c(-c5ccc(C(=O)NCCN(C)C)nc5)cc4c32)C1`: the IC50 in data set [8] is greater than 33 µM; in [5] it was greater than 30 µM; in data set [6], 130 nM. The solubility thermodynamic at 24 h in data set [2] turned out to be 980 µM (≈ 483 µg/mL). Moreover, the logD in data set [3] was 1.5. The efflux ratio in the data set “in vitro” was 11. The figures for the hepatocyte CLint in data set [4] and in data set [13] were 2.9 µL/min/1e6 cells and 4 µL/min/1e6 cells, respectively. The Papp A→B in [15] amounted to 2.5 ×10⁻⁶ cm/s.

Regarding `Cn1c(=O)n(C2CCOCC2)c2c3cc(-c4ccc(OCCCN5CCCCC5)nc4)c(F)cc3ncc21`, the figures for the IC50 in [8], in data set [5] and in [6] were greater than 33 µM, greater than 29 µM and 1.2 nM, respectively. Besides, the solubility thermodynamic at 24 h in data set [2] amounted to 310 µM (≈ 161 µg/mL). Moreover, in data set [3], the logD was 2.1. In “in vitro”, the efflux ratio amounted to 2.2. Further, the figures for the hepatocyte CLint in [4] and in [13] were 5.1 µL/min/1e6 cells and 5.3 µL/min/1e6 cells, respectively. Moreover, in data set [15], the Papp A→B amounted to 6.4 ×10⁻⁶ cm/s.

For `COCc1ccc(-c2cc3c(cc2F)ncc2c3n([C@H]3C[C@@H](OC)C3)c(=O)n2C)cn1`, the IC50 in [8] is 9 µM; in [5], greater than 30 µM; in [6], 100 nM. The Vd in [10] came out at 0.98 L/kg. Moreover, the half-life in “in vivo [12]” is 162 min. Also, in data set [2], the solubility thermodynamic at 24 h amounted to 37 µM (≈ 15.6 µg/mL). For the same compound, the logD in data set [3] was found to be 2.7. Moreover, in the data set “in vitro”, the efflux ratio amounted to 0.4. The values for the hepatocyte CLint in data set [4] and in data set [13] were 4.5 µL/min/1e6 cells and 8.8 µL/min/1e6 cells, respectively. In addition, the clearance in the data set “in vivo [14]” came to 22.5 mL/min/kg. Moreover, the Papp A→B in [15] came out at 38 ×10⁻⁶ cm/s. Moreover, the bioavailability in data set [17] is greater than 100%.

In the case of `COCc1ccc(-c2cc3c(cc2F)ncc2c3n([C@H]3C[C@@H](O)C3)c(=O)n2C)cn1`, the results for the IC50 in [8], in data set [5] and in data set [6] were 15 µM, greater than 30 µM and 140 nM, respectively. For the same compound, the solubility thermodynamic at 24 h in data set [2] amounted to 270 µM (≈ 110 µg/mL). This compound gave a logD in data set [3] of 2. Also, the efflux ratio in the data set “in vitro” was found to be 2.6. Further, the hepatocyte CLint came to 6 µL/min/1e6 cells in data set [4] and 2.7 µL/min/1e6 cells in data set [13]. In addition, the Papp A→B in data set [15] was found to be 14 ×10⁻⁶ cm/s.

For the compound `CO[C@H]1C[C@@H](n2c(=O)n(C)c3cnc4cc(F)c(-c5ccc(OCCN(C)C)nc5)cc4c32)C1`, the IC50 in [8] was greater than 33 µM; in [5], greater than 30 µM; in data set [6] it was 23 nM. The compound further gave a pKa in data set [1] of 8.5. In [2], the solubility thermodynamic at 24 h is greater than 1000 µM. Besides, the logD in data set [3] is 2. Moreover, the efflux ratio in “in vitro” was found to be 1.6. For the same compound, the hepatocyte CLint in [4] stood at 12 µL/min/1e6 cells; in [13], 8.3 µL/min/1e6 cells. Besides, in data set [15], the Papp A→B worked out at 16 ×10⁻⁶ cm/s.

Regarding `CO[C@H]1C[C@@H](n2c(=O)n(C)c3cnc4ccc(-c5ccc(OCCCN6CCOCC6)nc5)cc4c32)C1`, the pKa in data set [1] was determined as 6.7. Also, the solubility thermodynamic at 24 h in data set [2] is 980 µM (≈ 494 µg/mL). Further, the logD in [3] came out at 1.4. Further, the hepatocyte CLint in data set [4] came to 28 µL/min/1e6 cells. In addition, the values for the IC50 in data set [5] and in data set [6] were greater than 30 µM and greater than 28000 nM, respectively.

`CNCCCOc1ccc(-c2ccc3ncc4c(c3c2)n([C@H]2C[C@@H](OC)C2)c(=O)n4C)cn1`: the IC50 in data set [8] was greater than 33 µM. In data set [1], the pKa stood at 10.3. Further, the solubility thermodynamic at 24 h in data set [2] was determined as 930 µM (≈ 416 µg/mL). This compound also came in with a logD in [3] of 0.4. Moreover, the efflux ratio in “in vitro” amounted to 41. The hepatocyte CLint in data set [4] was determined as 4.8 µL/min/1e6 cells; in data set [13], 4.4 µL/min/1e6 cells. Further, the Papp A→B in data set [15] was 0.65 ×10⁻⁶ cm/s.

For the compound `CO[C@H]1C[C@@H](n2c(=O)n(C)c3cnc4cc(F)c(-c5ccc(OCCCN(C)C)nc5)cc4c32)C1`, the IC50 in data set [8] is greater than 33 µM. In addition, in data set [1], the pKa came to 9.3. Further, the solubility thermodynamic at 24 h in data set [2] is greater than 980 µM. In data set [3], the logD worked out at 1.8. In the data set “in vitro”, the efflux ratio is 6.2. Further, the hepatocyte CLint in [4] was 6.6 µL/min/1e6 cells; in [13], 7.9 µL/min/1e6 cells. Moreover, the apical-to-basolateral permeability (Papp A→B) in data set [15] is 6.8 ×10⁻⁶ cm/s.

`Cn1c(=O)n(C2CCOCC2)c2c3cc(-c4cccnc4)ccc3ncc21`: the IC50 in [8] worked out at 11 µM. For the same compound, the solubility thermodynamic at 24 h in data set [2] turned out to be 17 µM (≈ 6.13 µg/mL). The compound also registered a logD in data set [3] of 2.2. For the same compound, the hepatocyte CLint in [4] is 9.4 µL/min/1e6 cells; in [13] it was less than 4.9 µL/min/1e6 cells. In addition, the Papp A→B was 60 ×10⁻⁶ cm/s in [18] and 30 ×10⁻⁶ cm/s in [15].

On to `NC(=O)c1cnc2ccc(-c3cccnc3)cc2c1NC1CCOCC1`, for which the solubility thermodynamic at 24 h in data set [2] was greater than 610 µM. This compound displayed a hepatocyte CLint in data set [13] of less than 4 µL/min/1e6 cells. Besides, the Papp A→B stood at 15 ×10⁻⁶ cm/s in [18] and 4.8 ×10⁻⁶ cm/s in [15].

As to `CO[C@H]1C[C@@H](n2c(=O)n(C)c3cnc4ccc(-c5ccc(OCCCN6CCCC6)nc5)cc4c32)C1`, the results for the IC50 in data set [8], in data set [5] and in data set [6] were greater than 33 µM, greater than 24 µM and 0.17 nM, respectively. For the same compound, the solubility thermodynamic at 24 h in data set [2] was greater than 1100 µM. Further, in [3], the logD was 1.8. Besides, the efflux ratio in “in vitro” was found to be 9.4. For the same compound, the hepatocyte CLint in data set [4] was less than 1.3 µL/min/1e6 cells; in [13], 5.3 µL/min/1e6 cells. In addition, in data set [15], the Papp A→B stood at 2.5 ×10⁻⁶ cm/s.

`COCc1ccc(-c2cc3c(cc2F)ncc2c3n([C@H]3C[C@H](OC)C3)c(=O)n2C)cn1`: the IC50 in data set [8] is 8.9 µM; in data set [5] it was greater than 28 µM; in data set [6], 160 nM. In [2], the solubility thermodynamic at 24 h stood at 49 µM (≈ 20.7 µg/mL). For the same compound, the logD in [3] came out at 3. Moreover, the efflux ratio in “in vitro” came to 0.6. Besides, the results for the hepatocyte CLint in data set [4] and in data set [13] were 4.3 µL/min/1e6 cells and 8.4 µL/min/1e6 cells, respectively. In addition, the Papp A→B in data set [15] is 28 ×10⁻⁶ cm/s.
